According to patent US10039776B2, “Hepato-protective beverage composition” (priority 2013, dated 2018):

Legend:
[1] = system: Male Wistar albino rats, alcohol induced sub-acute hepatotoxicity; test: Alcohol induced sub-acute hepatotoxicity in rats: evaluation of hepato-protective activity (% protection, % synergism); type: in vivo
Source text: • 1. Hepato-protection: the ability to reduce stress and prevent damage to the liver. • 2. Synergistic hepato-protective effect: where the net hepato-protective effect of a combination is greater than the sum of the hepato-protective effects of the parts. • 3. Primary hepato-protective agent; 18α-Glycyrrhizin, 18β-Glycyrrhizin, or a combination thereof. • 4. Complimentary hepato-protective agent: sugar, sugar alcohol, or a combination thereof. • 5. Effective amount: the amount of each hepato-protective agent that must be included in a beverage to result in a net hepato-protective synergistic effect. Effective amounts include: • a. For 18α-Glycyrrhizin, a mass concentration range of 0.04% to 1.0%. • b. For 18β-Glycyrrhizin, a mass concentration range of 0.04% to 1.0%. • c. For sugar, a mass concentration range of 0.5% to 3.5%. • d. For sugar alcohol, a mass concentration range of 0.5% to 3.5%. • 6. Effective proportion: the proportional amount of how many units of complimentary hepato-protective agent should be added per unit of primary hepato-protective agent to result in a hepato-protective synergistic effect. An effective proportion is in the range of 1:2 to 175:2 (units of complimentary hepato-protective agent to units of primary hepato-protective agent). […] All animal experiments were conducted for a period of one month by per oral administration of 2.5 g/kg dose of alcohol.
The following tables 10 and 11 further illustrate hepatoprotective activity of the supplied alcoholic formulations in comparison with standard alcoholic drink in rat model, when fed orally for 4 weeks and also illustrate any synergistic effect of the ingredients. Hepatoprotection (HP) Calculation % Protection=1−[(T-NS)/(AL-NS)]×100 T=Mean value of drug treated, NS=Mean value of normal control, AL=Mean value of alcohol alone
Distilled ethanol was obtained from Bengal Chemicals, West Bengal, India, Biochemical kits like AST, ALT, ALKP and total protein were obtained from Span Diagnostics Ltd. Surat, India. Time course study of oxidative and nitrosative stress and antioxidant enzymes in K2Cr2O7-induced nephrotoxicity. BMC Nephrol., 6:4], TNF-α was estimated by standard procedures as mentioned in Rat TNF-α ELIS A kit (BioLegend, Inc. San Diego, Calif. USA).
Male Wistar albino rats weighing 150-200 g are procured from local registered traders (CPCSEA Regd No. 1443/po/6/4/CPCSEA), Kolkata, India, and were acclimatized for 7 days at standard housing condition (26° C.±2° C., 60-70% RFT with 12±1 hours light and dark cycle). Animals were fed with commercially available diet (Upton India Pvt. Ltd, India) and water ad-libitum during the experiment period.
Male Wistar albino rats weighing 150-200 g are procured and randomly divided into groups consisting of six animals in each group. Sub-acute toxicity is induced by alcohol in rats by oral administration of 25% alcohol (2.5 gm/kg/day, p.o.) for 28 days and this group served as the negative control and the positive control group received distilled water only.
All drug solutions were prepared in 15-40% aqueous alcohol, adjusting the pH in the range of 4.0-9.0 for evaluation of hepato-protective activity. This solution is further diluted with distilled water to obtain 25% aqueous alcoholic solution and administered orally by gavage to different rats group of step (a).
On day 28th day the animals are anaesthetized with ether and blood samples are collected by cardiac puncture and the serum is used for the assay of marker enzymes serum alanine aminotransferase (ALT), aspartate aminotransferase (AS′T), alkaline phosphatase (ALP). The rats are sacrificed by exposure to an overdose of ether, immediately after the collection of blood; their livers are removed, washed in cold saline. Part of the liver is used for preparation of liver homogenate in phosphate buffer (pH 7.4). […]

[2] = system: superoxide dismutase (SOD); settings: erythritol-added group; cited from earlier work
[3] = cited from earlier work
[4] = sugar alcohol or sugar alone at 1%, alcohol 2.5 g/kg p.o. one month
[5] = sugar alcohol or sugar alone at 2.5%, alcohol 2.5 g/kg p.o. one month

| Molecule | ALT etc % Prot. [1, 4] | GSH % Prot. [1, 4] | MDA % Prot. [1, 4] | SOD etc % Prot. [1, 4] | TNF-α % Prot. [1, 4] | ALT etc % Prot. [1, 5] | GSH % Prot. [1, 5] | MDA % Prot. [1, 5] | SOD etc % Prot. [1, 5] | TNF-α % Prot. [1, 5] | also measured |
| --- | --- | --- | --- | --- | --- | --- | --- | --- | --- | --- | --- |
| OC[C@H]1O[C@@](CO)(O[C@H]2O[C@H](CO)[C@@H](O)[C@H](O)[C@H]2O)[C@@H](O)[C@@H]1O [Suc, Sucrose] | 6.70% | 6% | 8.27% | 5.16% | 6.13% | 13.89% | 11.63% | 18.92% | 10.49% | 14.18% | – |
| O=C[C@H](O)[C@@H](O)[C@H](O)CO [Xyls, Xylose] | 8.06% | 6.23% | 6.28% | 7.83% | 6.44% | 14.73% | 11.84% | 15.38% | 19.1% | 13.98% | – |
| OC[C@@H](O)[C@@H](O)CO [Ery, D-Erythritol] | 17.84% | 18.71% | 24.71% | 17.94% | 16.57% | 32.13% | 37.29% | 48.61% | 36.29% | 35.96% | – |
| OC[C@@H](O)[C@@H](O)[C@H](O)[C@H](O)CO [Sample Code A, D-Mannitol] | – | – | – | – | – | – | – | – | – | – | TNF-α % Prot. ([1]; alcohol 2.5 g/kg/day p.o. 28 days, composition fixed by sample/example, listed as Example 2): 7.19%; GSH % Prot. ([1]; alcohol 2.5 g/kg/day p.o. 28 days, liver homogenate, composition fixed by sample/example, listed as Example 2): 10.35%; MDA % Prot. ([1]; hepatic MDA, alcohol 2.5 g/kg/day p.o. 28 days, composition fixed by sample/example, listed as Example 2): 19.17%; SOD etc % Prot. ([1]; mean of SOD, CAT and GPx, alcohol 2.5 g/kg/day p.o. 28 days, composition fixed by sample/example, listed as Example 2): 12.71%; ALT etc % Prot. ([1]; mean of serum ALT, AST and ALKP, alcohol 2.5 g/kg/day p.o. 28 days, composition fixed by sample/example, listed as Example 2): 12.26% |
| OC[C@@H](O)[C@@H](O)[C@H](O)[C@H](O)CO [Sample Code C, D-Mannitol] | – | – | – | – | – | – | – | – | – | – | TNF-α % Prot. ([1]; alcohol 2.5 g/kg/day p.o. 28 days, composition fixed by sample/example, listed as 3): 16.74%; TNF-α % Prot. ([1]; alcohol 2.5 g/kg/day p.o. 28 days, composition fixed by sample/example, listed as Example 3): 31.46%; GSH % Prot. ([1]; alcohol 2.5 g/kg/day p.o. 28 days, liver homogenate, composition fixed by sample/example, listed as 3): 20.06%; GSH % Prot. ([1]; alcohol 2.5 g/kg/day p.o. 28 days, liver homogenate, composition fixed by sample/example, listed as Example 3): 31.53%; MDA % Prot. ([1]; hepatic MDA, alcohol 2.5 g/kg/day p.o. 28 days, composition fixed by sample/example, listed as 3): 31.63%; MDA % Prot. ([1]; hepatic MDA, alcohol 2.5 g/kg/day p.o. 28 days, composition fixed by sample/example, listed as Example 3): 50.80%; SOD etc % Prot. ([1]; mean of SOD, CAT and GPx, alcohol 2.5 g/kg/day p.o. 28 days, composition fixed by sample/example, listed as 3): 19.32%; SOD etc % Prot. ([1]; mean of SOD, CAT and GPx, alcohol 2.5 g/kg/day p.o. 28 days, composition fixed by sample/example, listed as Example 3): 35.83%; ALT etc % Prot. ([1]; mean of serum ALT, AST and ALKP, alcohol 2.5 g/kg/day p.o. 28 days, composition fixed by sample/example, listed as 3): 70.37%; ALT etc % Prot. ([1]; mean of serum ALT, AST and ALKP, alcohol 2.5 g/kg/day p.o. 28 days, composition fixed by sample/example, listed as Example 3): 29.71% |
| OC[C@@H](O)[C@@H](O)CO [erythritol] | – | – | – | – | – | – | – | – | – | – | increase of SOD activity [2]: 2-5 times |
| CCO [ethanol] | – | – | – | – | – | – | – | – | – | – | time to peak blood alcohol concentration ([3]; fasting state): ≤ 30 min; ingested alcohol degraded to acetaldehyde ([3]; human being): 95%; ingested alcohol excreted unchanged ([3]; human being): 5%; share of alcohol metabolism accounted for by liver ([3]; in vivo): ~90%; alcohol metabolized per hour ([3]; typical adult, printed 'g of alcohol, hour'): 7 to 10 g |
| OC[C@@H](O)[C@H](O)[C@@H](O)CO [Xyl, D-Xylitol] | 17.62% | 19.76% | 26.9% | 18.91% | 15.77% | 26.72% | 35.57% | 45.38% | 36.88% | 30.05% | – |
| 18β-Glycyrrhizin [Sample Code D] | – | – | – | – | – | – | – | – | – | – | TNF-α % Prot. ([1]; alcohol 2.5 g/kg/day p.o. 28 days, composition fixed by sample/example, listed as Example 4): 7.64%; GSH % Prot. ([1]; alcohol 2.5 g/kg/day p.o. 28 days, liver homogenate, composition fixed by sample/example, listed as Example 4): 3.29%; MDA % Prot. ([1]; hepatic MDA, alcohol 2.5 g/kg/day p.o. 28 days, composition fixed by sample/example, listed as Example 4): 15.97%; SOD etc % Prot. ([1]; mean of SOD, CAT and GPx, alcohol 2.5 g/kg/day p.o. 28 days, composition fixed by sample/example, listed as Example 4): 11.45%; ALT etc % Prot. ([1]; mean of serum ALT, AST and ALKP, alcohol 2.5 g/kg/day p.o. 28 days, composition fixed by sample/example, listed as Example 4): 8.38% |
| OC[C@H]1O[C@@H](O[C@H]2[C@H](O)[C@@H](O)C(O)O[C@@H]2CO)[C@H](O)[C@@H](O)[C@H]1O (stereo partly drawn) [Lac, Lactose] | 8.21% | 4.36% | 7.70% | 6.78% | 8.19% | 17.41% | – | 21.47% | 17.38% | 15.26% | – |
